# Results: patent US8952024B2, “Herbicidal pyrimidone derivatives” (E I du Pont de Nemours and Company, priority 2009, dated 2015)
# Where two headings read alike, the source gives them in different places.
# What was measured:
# Assay in all cases: Test B pre-/postemergence plant response
# Type in all cases: in vivo
# [1] = system: wheat (Triticum aestivum); conditions: Triticum aestivum, pre-emergence, Preemergence, read-out: Plant response rating, Wheat
# How it was run: (§1)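 Seeds sown in loam–sand blend were treated preemergence, and plants at 2–18 cm (1- to 4-leaf stage) in peat-based medium were treated postemergence; compounds were formulated in non-phytotoxic solvent with surfactant. After 13–15 days in greenhouse, response was visually rated against controls, 0 (no effect) to 100 (complete control).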
# [2] = system: goosegrass (Eleusine indica); conditions: for pest or weed control at 62 g/ha: 62 g ai/ha
# How it was run: as §1
# [3] = system: Surinam grass (Brachiaria decumbens)
# How it was run: as §1
# kochia (Kochia scoparia) = conditions: Postemergence
# How it was run: as §1
# [4] = system: large crabgrass (Digitaria sanguinalis); conditions: for pest or weed control at 31 g/ha: 31 g ai/ha, scale 0 to 100 (0 no effect, 100 complete control); for pest or weed control at 62 g/ha: 62 g ai/ha
# How it was run: as §1
# wild oat (Avena fatua) = system: wild oat (Avena fatua)
# How it was run: as §1
# [5] = system: blackgrass (Alopecurus myosuroides); conditions: for pest or weed control at 31 g/ha: 31 g ai/ha, scale 0 to 100 (0 no effect, 100 complete control); for pest or weed control at 62 g/ha: 62 g ai/ha
# How it was run: as §1
# [6] = system: johnsongrass (Sorghum halepense)
# How it was run: as §1
# [7] = system: ragweed (common ragweed, Ambrosia elatior)
# How it was run: as §1
# [8] = system: pigweed (Amaranthus retroflexus)
# How it was run: as §1
# [9] = Postemergence, 250 g ai/ha, scale 0 to 100
# [10] = Preemergence, 125 g ai/ha, 0 to 100 scale
compound,measurement,setting,value
"Cc1c(F)cccc1-n1c(-c2ccccc2)ncc(C(=O)C2=C(O)CCCC2=O)c1=O [Compound 47, 3-(3-fluoro-2-methylphenyl)-5-[(2-hydroxy-6-oxo-1-cyclohexen-1-yl)carbonyl]-2-phenyl-4(3H)-pyrimidinone]",plant injury at 250 g/ha,"[1]; 250 g ai/ha, 0 to 100 scale",0%
same,plant injury at 31 g/ha,"[1]; 31 g ai/ha, scale 0 to 100 (0 no effect, 100 complete control)",0%
same,pest or weed control at 62 g/ha,"[2]; Eleusine indica, post-emergence, Postemergence, scale 0 (no effect) to 100 (complete control), 13 to 15 days, read-out: Plant response rating, Goosegrass",95%
same,pest or weed control at 125 g/ha,"[2]; Eleusine indica, post-emergence, Postemergence, 125 g ai/ha, visual rating after 13 to 15 days, scale 0 (no effect) to 100 (complete control)",95%
same,pest or weed control at 250 g/ha,"[2]; Eleusine indica, pre-emergence, 250 g ai/ha, Preemergence, 0 to 100 scale, read-out: Plant response rating, Goosegrass",100%
same,pest or weed control at 31 g/ha,"[2]; Eleusine indica, pre-emergence, Preemergence, 31 g ai/ha, scale 0 to 100 (0 no effect, 100 complete control), read-out: Plant response rating, Goosegrass",95%
same,pest or weed control at 62 g/ha,"[2]; Eleusine indica, pre-emergence, Preemergence, scale 0 to 100, 0 no effect, 100 complete control, read-out: Plant response rating, Goosegrass",100%
same,Goosegrass plant response rating,[2]; [9],98
same,Goosegrass plant response rating,[2]; [10],100
same,Surinam Grass plant response rating,[3]; [10],100
same,pest or weed control at 62 g/ha,"[3]; Urochloa decumbens, post-emergence, Postemergence, 62 g ai/ha, scale 0 (no effect) to 100 (complete control), 13 to 15 days, read-out: Plant response rating, Surinam Grass",95%
same,pest or weed control at 125 g/ha,"[3]; Urochloa decumbens, post-emergence, Postemergence, 125 g ai/ha, visual rating after 13 to 15 days, scale 0 (no effect) to 100 (complete control)",98%
same,pest or weed control at 250 g/ha,"[3]; Urochloa decumbens, pre-emergence, 250 g ai/ha, Preemergence, 0 to 100 scale, read-out: Plant response rating, Surinam Grass",100%
same,pest or weed control at 31 g/ha,"[3]; Urochloa decumbens, pre-emergence, Preemergence, 31 g ai/ha, scale 0 to 100 (0 no effect, 100 complete control), read-out: Plant response rating, Surinam Grass",85%
same,pest or weed control at 62 g/ha,"kochia (Kochia scoparia); Bassia scoparia, post-emergence, 62 g ai/ha, scale 0 (no effect) to 100 (complete control), 13 to 15 days, read-out: Plant response rating, Kochia",95%
same,pest or weed control at 125 g/ha,"kochia (Kochia scoparia); Bassia scoparia, post-emergence, 125 g ai/ha, visual rating after 13 to 15 days, scale 0 (no effect) to 100 (complete control)",98%
same,Kochia plant response rating,"kochia (Kochia scoparia); 250 g ai/ha, scale 0 to 100",100
same,pest or weed control at 31 g/ha,"[4]; Digitaria sanguinalis, post-emergence, Postemergence, read-out: Plant response rating, Crabgrass, Large",85%
same,pest or weed control at 62 g/ha,"[4]; Digitaria sanguinalis, post-emergence, Postemergence, scale 0 (no effect) to 100 (complete control), 13 to 15 days, read-out: Plant response rating, Crabgrass, Large",85%
same,pest or weed control at 125 g/ha,"[4]; Digitaria sanguinalis, post-emergence, Postemergence, 125 g ai/ha, visual rating after 13 to 15 days, scale 0 (no effect) to 100 (complete control)",90%
same,pest or weed control at 250 g/ha,"[4]; Digitaria sanguinalis, pre-emergence, 250 g ai/ha, Preemergence, 0 to 100 scale, read-out: Plant response rating, Crabgrass, Large",100%
same,pest or weed control at 31 g/ha,"[4]; Digitaria sanguinalis, pre-emergence, Preemergence, read-out: Plant response rating, Crabgrass, Large",75%
same,pest or weed control at 62 g/ha,"[4]; Digitaria sanguinalis, pre-emergence, Preemergence, scale 0 to 100, 0 no effect, 100 complete control, read-out: Plant response rating, Crabgrass, Large",95%
same,"Crabgrass, Large plant response rating",[4]; [9],100
same,"Crabgrass, Large plant response rating",[4]; [10],100
same,pest or weed control at 62 g/ha,"wild oat (Avena fatua); Avena fatua, post-emergence, Postemergence, 62 g ai/ha, scale 0 (no effect) to 100 (complete control), 13 to 15 days, read-out: Plant response rating, Oat, Wild",60%
same,pest or weed control at 125 g/ha,"wild oat (Avena fatua); Avena fatua, post-emergence, Postemergence, 125 g ai/ha, visual rating after 13 to 15 days, scale 0 (no effect) to 100 (complete control)",60%
same,pest or weed control at 250 g/ha,"wild oat (Avena fatua); Avena fatua, pre-emergence, 250 g ai/ha, Preemergence, 0 to 100 scale, read-out: Plant response rating, Oat, Wild",10%
same,pest or weed control at 31 g/ha,"wild oat (Avena fatua); Avena fatua, pre-emergence, Preemergence, 31 g ai/ha, scale 0 to 100 (0 no effect, 100 complete control), read-out: Plant response rating, Oat, Wild",0%
same,"Oat, Wild plant response rating",wild oat (Avena fatua); [10],0
same,pest or weed control at 31 g/ha,"[5]; Alopecurus myosuroides, post-emergence, 360 h, Postemergence, read-out: Plant response rating, Blackgrass",5%
same,pest or weed control at 62 g/ha,"[5]; Alopecurus myosuroides, post-emergence, 360 h, Postemergence, scale 0 (no effect) to 100 (complete control), 13 to 15 days, read-out: Plant response rating, Blackgrass",20%
same,pest or weed control at 125 g/ha,"[5]; Alopecurus myosuroides, post-emergence, 360 h, Postemergence, 125 g ai/ha, visual rating after 13 to 15 days, scale 0 (no effect) to 100 (complete control)",25%
same,pest or weed control at 250 g/ha,"[5]; Alopecurus myosuroides, pre-emergence, 360 h, 250 g ai/ha, Preemergence, 0 to 100 scale, read-out: Plant response rating, Blackgrass",5%
same,pest or weed control at 31 g/ha,"[5]; Alopecurus myosuroides, pre-emergence, 360 h, Preemergence, read-out: Plant response rating, Blackgrass",0%
same,pest or weed control at 62 g/ha,"[5]; Alopecurus myosuroides, pre-emergence, 360 h, Preemergence, scale 0 to 100, 0 no effect, 100 complete control, read-out: Plant response rating, Blackgrass",5%
same,Blackgrass plant response rating,[5]; [9],30
same,Blackgrass plant response rating,[5]; [10],5
same,Johnsongrass plant response rating,[6]; [10],80
same,pest or weed control at 125 g/ha,"[6]; Sorghum halepense, post-emergence, Postemergence, 125 g ai/ha, visual rating after 13 to 15 days, scale 0 (no effect) to 100 (complete control)",98%
same,pest or weed control at 250 g/ha,"[6]; Sorghum halepense, pre-emergence, 250 g ai/ha, Preemergence, 0 to 100 scale, read-out: Plant response rating, Johnsongrass",100%
same,pest or weed control at 31 g/ha,"[6]; Sorghum halepense, pre-emergence, Preemergence, 31 g ai/ha, scale 0 to 100 (0 no effect, 100 complete control), read-out: Plant response rating, Johnsongrass",65%
same,pest or weed control at 62 g/ha,"[6]; Sorghum halepense, pre-emergence, Preemergence, 62 g ai/ha, scale 0 to 100, 0 no effect, 100 complete control, read-out: Plant response rating, Johnsongrass",75%
same,pest or weed control at 62 g/ha,"[7]; Ambrosia artemisiifolia, post-emergence, 360 h, Postemergence, 62 g ai/ha, scale 0 (no effect) to 100 (complete control), 13 to 15 days, read-out: Plant response rating, Ragweed",90%
same,pest or weed control at 125 g/ha,"[7]; Ambrosia artemisiifolia, post-emergence, 360 h, Postemergence, 125 g ai/ha, visual rating after 13 to 15 days, scale 0 (no effect) to 100 (complete control)",95%
same,pest or weed control at 250 g/ha,"[7]; Ambrosia artemisiifolia, pre-emergence, 360 h, 250 g ai/ha, Preemergence, 0 to 100 scale, read-out: Plant response rating, Ragweed",95%
same,pest or weed control at 31 g/ha,"[7]; Ambrosia artemisiifolia, pre-emergence, 360 h, Preemergence, 31 g ai/ha, scale 0 to 100 (0 no effect, 100 complete control), read-out: Plant response rating, Ragweed",45%
same,Ragweed plant response rating,[7]; [10],90
same,pest or weed control at 62 g/ha,"[8]; Amaranthus retroflexus, post-emergence, Postemergence, 62 g ai/ha, scale 0 (no effect) to 100 (complete control), 13 to 15 days, read-out: Plant response rating, Pigweed",98%
same,pest or weed control at 125 g/ha,"[8]; Amaranthus retroflexus, post-emergence, Postemergence, 125 g ai/ha, visual rating after 13 to 15 days, scale 0 (no effect) to 100 (complete control)",100%
same,pest or weed control at 250 g/ha,"[8]; Amaranthus retroflexus, pre-emergence, 250 g ai/ha, Preemergence, 0 to 100 scale, read-out: Plant response rating, Pigweed",100%
same,pest or weed control at 31 g/ha,"[8]; Amaranthus retroflexus, pre-emergence, Preemergence, 31 g ai/ha, scale 0 to 100 (0 no effect, 100 complete control), read-out: Plant response rating, Pigweed",98%
same,Pigweed plant response rating,[8]; [10],100
